Where two headings read alike, the source gives them in different places. Marks after values point to notes of the source that are not given here.
Tests used:
HepG2 cells = conditions: 21 hr after addition, ref Simon and Mueller 2006; cited from earlier work
AR [1] = conditions: read-out: IC50 AR; natural ligand; ref Cabeza et al. (2004); cited from earlier work
AR [2] = conditions: read-out: EC50 AR; natural ligand; ref Xu et al. (2005); cited from earlier work
ER [3] = conditions: 17β-estradiol set to 100%, cited from earlier work
ER [4] = conditions: 17β-estradiol set to 100%, cited from earlier work; remark: listed apart in the source
AR [5] = conditions: DHT set to 100%, cited from earlier work
AhR [6] = conditions: TCDD set to 100%, cited from earlier work
ER [7] = system: ER; set-up: method as in Blair et al. (2000); conditions: natural ligand; ref Blair et al. (2000); cited from earlier work
ER [8] = system: ER; set-up: method as in Pillon et al. (2005); conditions: natural ligand; ref Pillon et al. (2005); cited from earlier work
AR-LBD = molecular target: T1, AR-LBD (Rattus norvegicus, UniProt P15207); test: PolarScreen AR competition assay (polarization fluorometry); assay type: binding
T1 construct: purchased PanVera, Madison, WI, USA
T1 sequence (P15207 651-882 limits assumed): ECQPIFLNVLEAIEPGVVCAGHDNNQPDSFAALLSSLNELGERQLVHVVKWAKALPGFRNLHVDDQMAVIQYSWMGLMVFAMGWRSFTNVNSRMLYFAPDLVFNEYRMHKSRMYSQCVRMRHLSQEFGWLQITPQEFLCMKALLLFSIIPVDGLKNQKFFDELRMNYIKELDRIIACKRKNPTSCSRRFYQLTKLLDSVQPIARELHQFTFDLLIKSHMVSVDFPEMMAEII
Procedure: The final concentration of AR LBD was 50 nM. […] All analyses were performed in triplicate.

hAR = molecular target: T2, hAR (Homo sapiens, UniProt P10275); test: AR activation, slp-ARE-Luc reporter in HepG2 cells transfected with pCMVhAR; assay type: cell-based
T2 construct: expressed in transfected cells; host or cells: HepG2
T2 sequence (P10275 1-920): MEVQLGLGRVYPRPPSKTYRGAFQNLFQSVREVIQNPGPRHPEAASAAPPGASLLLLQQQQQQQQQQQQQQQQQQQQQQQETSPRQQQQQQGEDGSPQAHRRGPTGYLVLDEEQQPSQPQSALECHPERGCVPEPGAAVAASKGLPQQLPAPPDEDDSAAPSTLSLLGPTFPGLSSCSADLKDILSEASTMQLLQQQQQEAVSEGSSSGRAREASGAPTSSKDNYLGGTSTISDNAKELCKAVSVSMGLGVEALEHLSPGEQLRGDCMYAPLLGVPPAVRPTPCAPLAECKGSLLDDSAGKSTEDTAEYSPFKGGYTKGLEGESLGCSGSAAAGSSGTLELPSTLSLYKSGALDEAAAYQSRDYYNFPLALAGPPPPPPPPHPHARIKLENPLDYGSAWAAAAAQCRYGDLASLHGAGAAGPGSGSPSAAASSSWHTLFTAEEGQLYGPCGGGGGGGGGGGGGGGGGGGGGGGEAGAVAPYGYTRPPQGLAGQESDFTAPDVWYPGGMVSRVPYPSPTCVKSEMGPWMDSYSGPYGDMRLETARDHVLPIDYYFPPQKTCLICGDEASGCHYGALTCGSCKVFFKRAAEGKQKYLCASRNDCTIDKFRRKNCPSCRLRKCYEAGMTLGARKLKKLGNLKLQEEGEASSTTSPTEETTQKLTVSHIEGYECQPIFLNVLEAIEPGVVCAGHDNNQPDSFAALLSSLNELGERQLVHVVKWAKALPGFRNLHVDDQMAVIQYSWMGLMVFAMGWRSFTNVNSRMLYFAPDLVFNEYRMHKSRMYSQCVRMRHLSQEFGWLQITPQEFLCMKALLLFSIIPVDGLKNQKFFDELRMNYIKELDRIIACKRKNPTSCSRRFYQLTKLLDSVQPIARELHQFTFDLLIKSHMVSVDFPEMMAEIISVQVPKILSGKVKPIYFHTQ

PR [9] = system: PR; set-up: method as in Viswanath et al. (2008); conditions: natural ligand; ref Viswanath et al. (2008); cited from earlier work
PR [10] = system: PR; set-up: method as in Lenasi and Breskvar (2004); conditions: natural ligand; ref Lenasi and Breskvar (2004); cited from earlier work
AR [11] = system: AR; set-up: method as in Viswanath et al. (2008); conditions: DHT set to 100%; ref Viswanath et al. (2008); cited from earlier work
AhR [12] = test: Relative binding affinity for AhR (Table 4); set-up: species or system human; conditions: TCDD as reference ligand set to 100%
Source text: Table 4 RBA of ligands for human receptors. | column: AhR / RBA

AhR [13] = test: Relative activation factor for AhR (Table 4); assay type: cell-based, human; conditions: TCDD as reference ligand set to 100%
Source text: Table 4 RBA of ligands for human receptors. | column: AhR / RAF

AhR [14] = system: AhR; set-up: method as in Bonefeld-Jørgensen et al. (2007); conditions: ref Bonefeld-Jørgensen et al. (2007); cited from earlier work
AhR [15] = system: AhR; set-up: method as in Westerink et al. (2008); conditions: ref Westerink et al. (2008); cited from earlier work
[16] = system: human androgen receptor (hAR); set-up: method as in Araki et al. 2005; conditions: at high concentrations; ref Araki et al. 2005; cited from earlier work
[17] = system: L5178Y tk^+/tk^− mouse lymphoma-cell; set-up: method as in McGregor et al. 1991; conditions: ref McGregor et al. 1991; cited from earlier work
[18] = ref Bonefeld-Jørgensen et al. (2007)

C[C@]12CCC(=O)C[C@@H]1CC[C@@H]1[C@@H]2CC[C@]2(C)[C@@H](O)CC[C@@H]12 [DHT, dihydrotestosterone]
reduction of hormone by metabolism (HepG2 cells): 46%

Nonylphenol
ER RBA (ER [3]; ref Blair et al. (2000)): 0.037 ^a %
ER RAF (ER [4]; ref Pillon et al. (2005)): 0.00016 ^b %
AR RBA (AR [5]; ref Scippo et al. (2004)): 0.0523 ^c %
AhR RAF (AhR [6]; [18]): 0.0003 ^d %

BrC[C@@H](Br)[C@H]1CC[C@@H](Br)[C@H](Br)C1 (mixture of isomers) [TBECH-β, rac-(1R,2R)-1,2-dibromo-(4S)-4-[(1S)1,2-dibromoethyl]cyclohexane]
IC50 (AR-LBD): 655 nM
EC50 (hAR): 294 nM

C[C@]12CC[C@H]3[C@@H](CCC4=CC(=O)CC[C@@]43C)[C@@H]1CC[C@@H]2O [Testosterone, testosterone]
reduction of hormone by metabolism (HepG2 cells): 82%

ClC1=C(Cl)[C@]2(Cl)[C@@H]3[C@@H]4C[C@@H]([C@H]5O[C@@H]45)[C@@H]3[C@@]1(Cl)C2(Cl)Cl [Dieldrin]
ER RBA (ER [3]; ref Sonneveld et al. (2005)): 0.0019 ^h %
ER RAF (ER [4]; ref Pillon et al. (2005)): 0.00001 ^b %

ClC1=C(Cl)C2(Cl)C3C4C=CC(C4)C3C1(Cl)C2(Cl)Cl (centres unmarked) [Aldrin]
ER RBA (ER [3]; ref Sonneveld et al. (2005)): 0.0029 ^h %
AR RBA (AR [5]; ref Fang et al. (2003)): 0.007 ^f %

C=CC1(C)OC(=O)N(c2cc(Cl)cc(Cl)c2)C1=O (centres unmarked) [Vinclozolin]
ER RBA (ER [3]; ref Blair et al. (2000)): < 0.0009 ^a %
AR RBA (AR [5]; ref Fang et al. (2003)): 0.0023 ^f %
AR RAF (AR [11]): 0.0126 ^g %

Clc1cc2c(cc1Cl)Oc1cc(Cl)c(Cl)cc1O2 [TCDD, 2,3,7,8-tetrachlorodibenzo-p-dioxin, reference compound]
AhR RBA (AhR [12]): 100%
AhR RAF (AhR [13]): 100%
IC50 (AhR [14]): 0.064 nM
EC50 (AhR [15]): 0.0488 nM
ER RBA (ER [3]; ref Viswanath et al. (2008)): < 0.0002 ^g %
ER RAF (ER [4]; ref Viswanath et al. (2008)): 0.00012 ^g %
AR RBA (AR [5]; ref Viswanath et al. (2008)): 0.0013 ^g %
AR RAF (AR [11]): < 0.0013 ^g %

Clc1ccc(-c2ccc(Cl)c(Cl)c2)cc1Cl [PCB 77, 3,3′,4,4′-tetrachlorobiphenyl]
ER RBA (ER [3]; ref Blair et al. (2000)): < 0.0003 ^a %
AhR RAF (AhR [6]; ref Zeiger et al. (2001)): 0.025 ^i %

O=C1c2ccccc2-c2cccc3cccc1c23 [benzoanthrone]
agonism to hAR [16]: weak agonists

CC(C)(C)c1ccc2c(c1)C(=O)c1ccccc1C2=O [2-tert-butylanthraquinone]
agonism to hAR [16]: weak agonists

BrCC(Br)C1CCC(Br)C(Br)C1 (centres unmarked) [TBECH, 1,2-dibromo-4-(1,2 dibromoethyl)cyclohexane]
mutagenicity [17]: mutagenic

Clc1ccc(C(c2ccccc2Cl)C(Cl)(Cl)Cl)cc1 (centres unmarked) [o,p′-DDT]
ER RBA (ER [3]; ref Blair et al. (2000)): 0.0014 ^a %
ER RAF (ER [4]; ref Legler et al. (1999)): 0.0009 ^e %
AR RBA (AR [5]; ref Fang et al. (2003)): 0.0149 ^f %
AR RAF (AR [11]): 0.0126 ^g %

CC(C)(c1ccc(O)cc1)c1ccc(O)cc1 [Bisphenol A]
ER RBA (ER [3]; ref Blair et al. (2000)): 0.0077 ^a %
ER RAF (ER [4]; [18]): 0.0183 ^d %
AR RBA (AR [5]; ref Scippo et al. (2004)): 0.0018 ^c %

From paper PMC2799458, “Diastereomers of the Brominated Flame Retardant 1,2-Dibromo-4-(1,2 dibromoethyl)cyclohexane Induce Androgen Receptor Activation in the HepG2 Hepatocellular Carcinoma Cell Line and the LNCaP Prostate Cancer Cell Line” (Environmental Health Perspectives, 2009)
